According to patent US20230165835A1, “METHODS OF TREATING ACUTE LUNG INJURY USING EBSELEN” (SOUND PHARMACEUTICALS INC., priority 2020, published 2023):
“Also recorded” adds a separate entry of the source.

Legend:
[1] = system: SARS-CoV-2; experiment: Hamster model of SARS-CoV-2 disease transmission and progression, viral load (PFU); type: in vivo, Golden Syrian Hamsters
Protocol: 24 hours prior to nasal inoculation with SARS-CoV-2, Golden Syrian Hamsters were dosed with ebselen, saline and remdesivir at 15 mg/kg. Samples were taken from nares (PFU/swab) on days 1, 2 and 3, and from the nasal turbinates and cranial & caudal lung tissue (PFU/100 mg) on day 7.

[2] = Cystic fibrosis trial: clinical chemistry, nephrotoxicity, tolerability; type: in vivo, human; details: for Serum Creatinine Mean (SD): baseline 0.77 (0.24); for Blood Urea Nitrogen Mean (SD): baseline 12.81 (4.73); for Bilirubin (Total) / Creatinine / Magnesium / Phosphorus / Albumin / Potassium / Uric Acid / Total Protein / Calcium / BUN / AST/SGOT / ALT/SGPT / GGT / Bicarbonate / Triglyceride / Alkaline Phosphatase / Glucose / Chloride / Total Cholesterol / Sodium / LDH: ITT Population; for Bilirubin (Total): Screening/Baseline 0.46; for Creatinine: Screening/Baseline 0.77; for Magnesium: Screening/Baseline 2.11; for Phosphorus: Screening/Baseline 3.62; for Albumin: Screening/Baseline 3.80; for Potassium: Screening/Baseline 4.33; for Uric Acid: Screening/Baseline 5.63; for Total Protein: Screening/Baseline 7.17; for Calcium: Screening/Baseline 8.84; for BUN: Screening/Baseline 12.81; for AST/SGOT: Screening/Baseline 16.86; for ALT/SGPT: Screening/Baseline 17.05; for GGT: Screening/Baseline 22; for Bicarbonate: Screening/Baseline 26.05; for Triglyceride: Screening/Baseline 78.33; for Alkaline Phosphatase: Screening/Baseline 97.71; for Glucose: Screening/Baseline 101.24; for Chloride: Screening/Baseline 101.95; for Total Cholesterol: Screening/Baseline 126.43; for Sodium: Screening/Baseline 135.71; for LDH: Screening/Baseline 161.48
Protocol: (§1) Thirty of 80 participants were enrolled starting in January 2019. They were Cystic fibrosis patients ages 18-70 that had acute pulmonary exacerbation or acute respiratory infections that required treatment with IV tobramycin 10 mg/kg/d for 10-21 days. They were randomized into four groups (1:1:1:1) (0, 200, 400, or 600 BID) and treated for 21 days. There were four follow-up visits for safety (adverse events, spirometry, labs), and two follow-up visits for efficacy (audiometric and vestibular). The primary endpoint was a reduction in cochleotoxic change, and the secondary endpoints was a reduction in tinnitus or vertigo severity.

[3] = Cystic fibrosis trial Part 2 Intervention: tobramycin-induced ototoxicity; type: in vivo, human
Protocol: as §1

[4] = Study 6.3: ebselen in mild to moderate COVID-19; type: in vivo, human; details: 400 to 600 mg BID for 14 to 21 days
[5] = Study 6.5: ebselen in moderate to severe COVID-19 at high risk of respiratory failure; type: in vivo, human; details: 400 to 600 mg BID up to 21 to 28 days
[6] = biological target: COVID-19 virus main protease (M^pro) (Severe acute respiratory syndrome coronavirus 2, UniProt P0DTD1); details: Jin et al.; cited from earlier work
[7] = Visit 3, end of tobramycin treatment
[8] = Visit 4, two weeks after end of tobramycin treatment
[9] = Visit 5, four weeks after end of tobramycin treatment
[10] = Part 2 Intervention (1:1:1:1) pooled

Q: What does the source list for `O=c1c2ccccc2[se]n1-c1ccccc1` [ebselen, 2-phenyl-1,2-benzisoselenazol-3(2H)-one]?
A: PFU/swab (nares) Day 1 ([1]; 15 mg/kg, 24 hours prior to nasal inoculation, saline 2.7E+04): 1.0E+04 PFU/swab; PFU/swab (nares) Day 3 ([1]; 15 mg/kg, 24 hours prior to nasal inoculation, saline 5.5E+02): 1.7E+02 PFU/swab; PFU/swab (nares) Day 2 ([1]; 15 mg/kg, 24 hours prior to nasal inoculation, saline 7.5E+03): 6.2E+03 PFU/swab; PFU/100 mg Cranial lung ([1]; 15 mg/kg, day 7, saline 4.9E+06): 2.3E+06 PFU/100 mg; PFU/100 mg Turbinates ([1]; 15 mg/kg, day 7, saline 5.5E+07): 3.6E+07 PFU/100 mg; PFU/100 mg Caudal lung ([1]; 15 mg/kg, day 7, saline 6.1E+06): 6.0E+06 PFU/100 mg; samples with lower counts compared to remdesivir ([1]; Table 2, six samples): 5 of 6; samples with lower counts compared to saline ([1]; Table 2, six samples): 6 of the 6; Serum Creatinine Mean (SD) ([2]; Visit 2, on tobramycin and study treatment, normal 0.49-1.44): 0.80 (0.22) mg/dl; Blood Urea Nitrogen Mean (SD) ([2]; Visit 2, on tobramycin and study treatment, normal 5-22): 14.68 (4.80) mg/dl; Bilirubin (Total) ([2]; Visit 2): 0.41; Creatinine ([2]; Visit 2): 0.80; Magnesium ([2]; Visit 2): 2.21; Phosphorus ([2]; Visit 2): 3.61; Albumin ([2]; Visit 2): 3.87; Potassium ([2]; Visit 2): 4.22; Uric Acid ([2]; Visit 2): 4.89; Total Protein ([2]; Visit 2): 7.17; Calcium ([2]; Visit 2): 8.86; BUN ([2]; Visit 2): 14.68; AST/SGOT ([2]; Visit 2): 26.45; ALT/SGPT ([2]; Visit 2): 31.41; GGT ([2]; Visit 2): 25; Bicarbonate ([2]; Visit 2): 26.73; Triglyceride ([2]; Visit 2): 114.82; Alkaline Phosphatase ([2]; Visit 2): 93.41; Glucose ([2]; Visit 2): 120.95; Chloride ([2]; Visit 2): 100.68; Total Cholesterol ([2]; Visit 2): 139.68; Sodium ([2]; Visit 2): 136.36; LDH ([2]; Visit 2): 165.45; Serum Creatinine Mean (SD) [2, 7]: 0.78 (0.20) mg/dl; Blood Urea Nitrogen Mean (SD) [2, 7]: 15.11 (5.56) mg/dl; Bilirubin (Total) ([2]; Visit 3): 0.45; Creatinine ([2]; Visit 3): 0.78; Magnesium ([2]; Visit 3): 2.19; Phosphorus ([2]; Visit 3): 3.68; Albumin ([2]; Visit 3): 4.05; Potassium ([2]; Visit 3): 4.25; Uric Acid ([2]; Visit 3): 5; Total Protein ([2]; Visit 3): 7.29; Calcium ([2]; Visit 3): 9.03; BUN ([2]; Visit 3): 15.11; AST/SGOT ([2]; Visit 3): 27.58; ALT/SGPT ([2]; Visit 3): 35.63; GGT ([2]; Visit 3): 28.32; Bicarbonate ([2]; Visit 3): 27.42; Triglyceride ([2]; Visit 3): 114.84; Alkaline Phosphatase ([2]; Visit 3): 90.16; Glucose ([2]; Visit 3): 102.53; Chloride ([2]; Visit 3): 100.68; Total Cholesterol ([2]; Visit 3): 151.89; Sodium ([2]; Visit 3): 136.05; LDH ([2]; Visit 3): 166.37; Serum Creatinine Mean (SD) [2, 8]: 0.78 (0.19) mg/dl; Blood Urea Nitrogen Mean (SD) [2, 8]: 14.94 (6.66) mg/dl; Bilirubin (Total) ([2]; Visit 4): 0.49; Creatinine ([2]; Visit 4): 0.78; Magnesium ([2]; Visit 4): 2.06; Phosphorus ([2]; Visit 4): 3.84; Albumin ([2]; Visit 4): 4.08; Potassium ([2]; Visit 4): 4.16; Uric Acid ([2]; Visit 4): 5.63; Total Protein ([2]; Visit 4): 7.49; Calcium ([2]; Visit 4): 9.12; BUN ([2]; Visit 4): 14.94; AST/SGOT ([2]; Visit 4): 18.22; ALT/SGPT ([2]; Visit 4): 20.44; GGT ([2]; Visit 4): 23.11; Bicarbonate ([2]; Visit 4): 25.94; Triglyceride ([2]; Visit 4): 96.06; Alkaline Phosphatase ([2]; Visit 4): 104.50; Glucose ([2]; Visit 4): 132.56; Chloride ([2]; Visit 4): 100.94; Total Cholesterol ([2]; Visit 4): 134.78; Sodium ([2]; Visit 4): 135.17; LDH ([2]; Visit 4): 158.83; Serum Creatinine Mean (SD) [2, 9]: 0.81 (0.24) mg/dl; Blood Urea Nitrogen Mean (SD) [2, 9]: 13.45 (6.49) mg/dl; Bilirubin (Total) ([2]; Visit 5): 0.46; Creatinine ([2]; Visit 5): 0.81; Magnesium ([2]; Visit 5): 2.16; Phosphorus ([2]; Visit 5): 3.72; Albumin ([2]; Visit 5): 3.98; Potassium ([2]; Visit 5): 4.25; Uric Acid ([2]; Visit 5): 5.62; Total Protein ([2]; Visit 5): 7.38; Calcium ([2]; Visit 5): 9.11; BUN ([2]; Visit 5): 13.45; AST/SGOT ([2]; Visit 5): 26.60; ALT/SGPT ([2]; Visit 5): 22.45; GGT ([2]; Visit 5): 20.65; Bicarbonate ([2]; Visit 5): 26.15; Triglyceride ([2]; Visit 5): 89.95; Alkaline Phosphatase ([2]; Visit 5): 101.70; Glucose ([2]; Visit 5): 119.05; Chloride ([2]; Visit 5): 101.80; Total Cholesterol ([2]; Visit 5): 137.60; Sodium ([2]; Visit 5): 136.45; LDH ([2]; Visit 5): 213.58; nephrotoxicity ([2]; after IV tobramycin and SPI-1005 or placebo treatment): no significant nephrotoxicity; also recorded: lack of nephrotoxicity; tolerability ([2]; human, in vivo, iv): well tolerated; ototoxic change versus Part 1 Observational study ([3]; 4 weeks after IV tobramycin treatment): lower levels of ototoxic change; % Responders (Bilateral), Conv + SRO [3, 10]: 29%; % Responders (Bilateral), Conventional [3, 10]: 5%; % Responders (Bilateral), DPOAE [3, 10]: 40%; % Responders (Bilateral), SRO [3, 10]: 21%; % Responders (Bilateral), WINT [3, 10]: 0%; % Responders (Unilateral), Conv + SRO [3, 10]: 29%; % Responders (Unilateral), Conventional [3, 10]: 5%; % Responders (Unilateral), DPOAE [3, 10]: 40%; % Responders (Unilateral), SRO [3, 10]: 37%; % Responders (Unilateral), WINT [3, 10]: 26%; % Responders, Conv + SRO [3, 10]: 57%; % Responders, DPOAE [3, 10]: 80%; % Responders, SRO [3, 10]: 58%; % Responders, TFI [3, 10]: 14%; % Responders, TL [3, 10]: 0%; % Responders, VSS [3, 10]: 5%; % Responders, WINT [3, 10]: 26%; % Responders, Conventional ([3]; Part 2 Intervention (1:1:1:1; 0, 200, 400, 600 BID pooled) with IV tobramycin, 4 weeks post-treatment): 10%; respiratory status and progression to severe disease [4]: effective to improve in respiratory status and prevent progression to severe disease; time to clinical improvement (NIAID ordinal scale) [5]: effective to reduce time to at least a 2-grade improvement from baseline on the NIAID ordinal scale; in vitro inhibition activity against M^pro protease [6]: modest in vitro inhibition activity
